Measured values from PMC9616412, “Nebulized fusion inhibitory peptide protects cynomolgus macaques from measles virus infection” (Nature Communications, 2022).

Conditions: 74 MBq in 3 ml NaCl 0.9%, mesh nebulizer; Mean +/- SD of four experiments
Method: Following European recommendations, 2 five-year-old healthy female cynomolgus macaques, 3–4 kg, were housed under conventional conditions in the animal facility. […] Animals were acclimatized to laboratory conditions and trained to breathe an aerosol with a facemask spontaneously. Aerosol generated from 3 ml of 0.9% NaCl mixed with 74 MBq of DTPA radiolabeled with technetium 99 m (^99mTc-DTPA) was administered through a facemask connected to the prototype mesh nebulizers, as used in MeV infection experiments (Fig. 2a). Deposition of aerosol was extrapolated based on the ^99mTc-DTPA signal measured at the end of the nebulization using a gamma camera (Orbiter 75 Ecam, Siemens healthcare, Erlangen, Germany)[69]. The nebulizer charge was measured by counting the radioactivity in the syringe (that contained ^99mTc-DTPA) before and after loading the nebulizers. Immediately after aerosol delivery, the animals were imaged using the gamma camera. The post-anterior static scintigraphy acquisition was performed for 120 s. The amount of ^99mTc-DTPA deposited into airways and stomach and remaining in the nebulizer was determined from the digitalized images taking into account the tissue attenuation coefficients, previously determined by perfusion scintigraphy (intravenous injection of ^99mTc-macroagregates of albumin). The organ body outline was specified using a specific Region Of Interest (ROI), and the lungs were delineated using the perfusion scan ROI. The aerosol dose delivered to different organs of NHPs is reported as a percentage of the nominal dose placed in the nebulizer for that given experiment, taking into account the decay of technetium for all measurements.

## O=C([O-])CN(CCN(CC(=O)[O-])CC(=O)[O-])CCN(CC(=O)[O-])CC(=O)[O-].[99Tc+4] [99mTC-DTPA, DTPA radiolabeled with technetium 99 m]
  Deposition in macaque, Esophagus / trachea: 3.4 +/- 4.2%
  Deposition in macaque, Lungs: 11.4 +/- 3.1%
  Deposition in macaque, Stomach: 11.9 +/-9.2%
  Deposition in macaque, Upper respiratory Tract: 29.5 +/- 11.9%
